# Article PMC8786932, “Bicyclic azetidines target acute and chronic stages of Toxoplasma gondii by inhibiting parasite phenylalanyl t-RNA synthetase” (Nature Communications, 2022)
# Several values for one entry are separate records, joined by “and”; a condition that tells them apart may be missing. Equal entries are not always repeated. Where two headings read alike, the source gives them in different places.
# How the values were obtained:
# [1] = system: firefly luciferase expressing T. gondii strains (GT1, RH, ME49, CTG, MAS, RUB, FOU, VAND); assay: Luciferase-based growth assay, FLuc parasites of diverse genotypes; format: cell-based; conditions: Toxoplasma gondii
# Protocol: In vitro cultures of HFF cells containing mature vacuoles were scraped, passaged through 23 g blunt end needles, and filtered using 3 micron filters. Purified parasites were resuspended in 350 μL of cytomix plus[49] and combined in a BTX 4 mm gap cuvette with 30 μL of PCR amplified templates corresponding to mutations of interest and 10 μg of pSAG1:Cas9-GFP U6:sgTgPheRS^[mut] (in 20 μL, 400 μL total volume, see Supplementary Data 1 for sgRNA sequences) prior to electroporation using a BTX ETM 830 electroporator. Amplified templates for TgPheRS mutations were generated from gBlocks (Integrated DNA Technologies, Coralville, IA, USA) that contain a BclI restriction site that replaces the PAM sequence to protect the repair template from being cut by Cas9. At 16 h post-transfection, transgenic parasites expressing pSAG1:Cas9-GFP were sorted on a Sony SH800 FACS sorter directly into 96-well plates. Single clones containing TgPheRS^[mut] were identified by amplifying a ~500 bp PCR fragment around introduced mutation followed by digestion using BclI (New England Biolabs) BclI sensitive clones were expanded and the locus was Sanger sequenced to verify incorporation of each independent mutation. To generate firefly luciferase (FLuc) expressing strains, freshly harvested parasites were combined with 20 μg of pTUB-FLUC DHFR flox plasmid and 10 μg of pSAG1:Cas9-GFP U6:sgUPRT[50] (in 50 μL cytomix plus) and transformed by electroporation as described above. Parasites were allowed to recover overnight followed by sequential selection with pyrimethamine (1.0 μM) and 5-flurodeoxyuracil (FUDR, 10 μM), as described previously. Stable clones were isolated by limiting dilution and a clone from each genetic background selected based on high luciferase activity (Table 1).
# All assays were carried out in a 96-well plate format containing confluent HFF monolayers to support parasite growth. To avoid edge effects, only the inner 60 wells of each plate were used. All compounds described were provided by the Broad Institute as 10 mM stocks in 100% DMSO and stored at −80 °C prior to use. Pyrimethamine (Sigma-Aldrich) was prepared as 5 mM stock in 100% DMSO and stored at −20 °C prior to use.
# T. gondii RH-FLuc parent = assay: Luciferase growth assay, parental line of resistance selection; format: cell-based, Toxoplasma gondii; conditions: for luciferase signal (raw): parent
# Excerpt: […]. […] […].
# [2] = system: T. gondii RHΔhxgprtΔku80 (RHΔΔ); assay: Tachyzoite lytic assay, wild-type parent; format: cell-based, Toxoplasma gondii; conditions: for % Parasite Growth: RHΔΔ; for EC50: Toxoplasma gondii
# Protocol: Parasite growth on HFF monolayers was monitored using a 96-well plate-based lytic assay modified from a previously described protocol. […]. Freshly harvested parasites (7.5 × 10^4 /well) were added to each well (in 100uL volume) to reach the final concentration range (10 μM to 0.0005 μM, 200 μL/well, 0.1% DMSO). Plates were incubated for 72 h at 37 °C then culture medium was aspirated and monolayers were fixed with 100% ethanol (ETOH) for 5 min at room temperature (RT). After rinsing with water, wells were stained with 0.1% crystal violet solution for 10 min at RT. Plates were rinsed with water, air dried, and absorption quantified on the Cytation 3 multi-mode imager at 570 nm wavelength. % parasite growth was calculated as 100−[(OD value for infected cultures at each concentration of compound/average OD value for no compound and no parasite infection) × 100]. EC50 values were calculated based on the mean of three biological replicates with each replicate containing two technical replicates.
# [3] = system: T. gondii RHΔΔ TgPheRS[M484I]; assay: Tachyzoite lytic assay, M484I mutant; format: cell-based; conditions: Toxoplasma gondii
# Protocol: In vitro cultures of HFF cells containing mature vacuoles were scraped, passaged through 23 g blunt end needles, and filtered using 3 micron filters. Purified parasites were resuspended in 350 μL of cytomix plus[49] and combined in a BTX 4 mm gap cuvette with 30 μL of PCR amplified templates corresponding to mutations of interest and 10 μg of pSAG1:Cas9-GFP U6:sgTgPheRS^[mut] (in 20 μL, 400 μL total volume, see Supplementary Data 1 for sgRNA sequences) prior to electroporation using a BTX ETM 830 electroporator. Amplified templates for TgPheRS mutations were generated from gBlocks (Integrated DNA Technologies, Coralville, IA, USA) that contain a BclI restriction site that replaces the PAM sequence to protect the repair template from being cut by Cas9. […]
# Parasite growth on HFF monolayers was monitored using a 96-well plate-based lytic assay modified from a previously described protocol. […] Plates were rinsed with water, air dried, and absorption quantified on the Cytation 3 multi-mode imager at 570 nm wavelength. % parasite growth was calculated as 100−[(OD value for infected cultures at each concentration of compound/average OD value for no compound and no parasite infection) × 100]. EC50 values were calculated based on the mean of three biological replicates with each replicate containing two technical replicates.
# in vivo = assay: in vivo; set-up: species or system mouse; Plasma free: unit not given here; conditions: for Kp / Cmax / MRT / Tmax / AUC(0-t) / AUC(0-inf) / CL/F / half-life: female, CD1, mouse, in vivo; for Cmax / MRT / Tmax / AUC(0-t) / AUC(0-inf) / CL/F / half-life: po, 10 mg/kg/day; for Cmax / MRT / Tmax / AUC(0-t) / AUC(0-inf) / CL/F / half-life / Vd: mouse, 10 mg/kg/day p.o.; for AUC(0-t): read-out: AUC0–24
# Protocol: […]. All mice were fed prior to dosing. After dosing, 200 uL of blood was collected at predetermined time points (pre, 1, 3, 7, 24 h). Blood samples were processed for plasma by centrifugation at approximately 4 °C, 4,500 g for 15 min within […]. Plasma samples were stored in polypropylene tubes, quick frozen over dry ice and kept at −70 ± 10 °C until LC/MS/MS analysis. Plasma concentration versus time data was analyzed by non-compartmental approaches using the Phoenix WinNonlin 6.3 software program. Brain tissue samples were taken at day 1, 4, and 8. Tissue samples were processed by centrifugation at approximately 10 °C, 17,000 g for 30 min within 30 min of collection.
smiles,measurement,setting,value
COc1ccc(NC(=O)N2CCCCN3[C@H](CN(C)C)[C@H](c4ccc(C#Cc5ccccc5)cc4)[C@@H]3C2)cc1 [BRD7929],EC50,"[1]; GT1, all eight lineages, read-out: EC50 against tachyzoite growth, all lineages",< 50 nM
same,EC50,"[1]; GT1, strain CTG, type III, N. America, read-out: EC50",31.5 nM
same,EC50,"[1]; GT1, strain FOU, type VI, Europe, read-out: EC50",45.1 nM
same,EC50,"[1]; GT1, strain GT1, type I, N. America, read-out: EC50",16.1 nM
same,EC50,"[1]; GT1, strain MAS, type IV, Europe, read-out: EC50",42 nM
same,EC50,"[1]; GT1, strain ME49, type II, Europe, read-out: EC50",49.4 nM
same,EC50,"[1]; GT1, strain RH, type I, Europe, read-out: EC50",24.1 nM
same,EC50,"[1]; GT1, strain RUB, type V, S. America, read-out: EC50",26.9 nM
same,EC50,"[1]; GT1, strain VAND, type X, S. America, read-out: EC50",27.9 nM
same,EC50,"T. gondii RH-FLuc parent; Toxoplasma gondii, read-out: EC50, parent RH-FLuc",14 nM
same,luciferase signal (raw),T. gondii RH-FLuc parent; concentration 2.222222,5 and 6 and 7 and 8
same,luciferase signal (raw),T. gondii RH-FLuc parent; concentration 6.666667,5 and 4 and 6
same,"luciferase signal (raw, Fig 3B source data)",T. gondii RH-FLuc parent; {},5
same,% Parasite Growth,"[2]; 3.33333333 uM, replicate wells",-62.34% and -8.91% and -41.4% and -6.78% and -65.46% and -56.23% and -31.38% and -99.25% and -132.9% and -155.42% and -68.19% and -11.78%
same,% Parasite Growth,[2]; 0.00152416 uM,68.94% and 89.11% and 79.46% and 70.31% and 60.77%
same,% Parasite Growth,[2]; 0.00457247 uM,84.64% and 87.57% and 82.22% and 46.33% and 48.4%
same,% Parasite Growth,[2]; 0.01371742 uM,76.37% and 86.87% and 80.22% and 58.24% and 60.43%
same,EC50,"[2]; 72 h, read-out: EC50, RHΔΔ",82 nM
same,EC50,"[2]; read-out: EC50, RHΔΔ",53 nM
same,EC50,"[2]; Table S4, Wild type, read-out: EC50 (growth restriction)",36 nM
same,EC50,"[3]; 72 h, read-out: EC50, M484I",93 nM
same,EC50,[3]; read-out: EC50 (growth restriction),65 nM
same,free concentration in plasma vs EC50,"in vivo; 10 mg/kg p.o. daily, 8 days, unbound",remained below the EC50 for most of the duration
same,Plasma free,"in vivo; 10 mg/kg p.o. daily, mean, time 1:00:00",7.292
same,Brain free,"in vivo; 10 mg/kg p.o. daily, mean, time 24:00:00",24.8595
same,Kp,"in vivo; brain/plasma, Day 1, read-out: Kp (Cb/Cp)",169
same,Kp,"in vivo; brain/plasma, Day 4, read-out: Kp (Cb/Cp)",211
same,Kp,"in vivo; brain/plasma, Day 8, read-out: Kp (Cb/Cp)",577
same,Cmax,in vivo; Day 1,153 ng/mL
same,MRT,in vivo; Day 1,13.1 h
same,Tmax,in vivo; Day 1,18.3 h
same,AUC(0-t),in vivo; Day 1,3190 ng·h/mL
same,AUC(0-inf),in vivo; Day 4,27700 ng·h/mL
same,CL/F,in vivo; Day 4,7.1 mL/min/kg
same,Cmax,in vivo; Day 4,330 ng/mL
same,MRT,in vivo; Day 4,11.7 h
same,Tmax,in vivo; Day 4,4.3 h
same,half-life,in vivo; Day 4,64.6 h
same,AUC(0-t),in vivo; Day 4,6360 ng·h/mL
same,AUC(0-inf),in vivo; Day 8,20000 ng·h/mL
same,CL/F,in vivo; Day 8,10 mL/min/kg
same,Cmax,in vivo; Day 8,207 ng/mL
same,MRT,in vivo; Day 8,12 h
same,Tmax,in vivo; Day 8,5 h
same,half-life,in vivo; Day 8,81.3 h
same,AUC(0-t),in vivo; Day 8,4390 ng·h/mL
same,Kp,"in vivo; unbound brain/plasma, Day 1, read-out: Kpu,u (Cb/Cp)",2.1
same,Kp,"in vivo; unbound brain/plasma, Day 4, read-out: Kpu,u (Cb/Cp)",2.6
same,Kp,"in vivo; unbound brain/plasma, Day 8, read-out: Kpu,u (Cb/Cp)",7.2
same,Kp,"in vivo; read-out: Kp u,u, concentration in brain vs. plasma",2 to 7
same,Vd,in vivo; Day 4,32 L/kg
same,Vd,in vivo; Day 8,62 L/kg
same,Plasma free,in vivo; time 3:00:00,9.26
same,Plasma free,in vivo; time 7:00:00,10.41
same,Plasma free,in vivo; time 24:00:00,11.33
same,Plasma free,in vivo; time 72:00:00,12.09
same,Plasma free,in vivo; time 73:00:00,19.13
same,Plasma free,in vivo; time 75:00:00,25.02
same,Plasma free,in vivo; time 79:00:00,22.5
same,Brain free,in vivo; time 96:00:00,44.7005
same,Plasma free,in vivo; time 96:00:00,17.52
same,Plasma free,in vivo; time 168:00:00,12.4
same,Plasma free,in vivo; time 169:00:00,14.08
same,Plasma free,in vivo; time 171:00:00,14.92
same,Plasma free,in vivo; time 175:00:00,15.38
same,Brain free,in vivo; time 192:00:00,77.3745
same,Plasma free,in vivo; time 192:00:00,12.86
